Assay results published in paper PMC10178848, “Modulating fast skeletal muscle contraction protects skeletal muscle in animal models of Duchenne muscular dystrophy” (The Journal of Clinical Investigation, 2023).
Where two headings read alike, the source gives them in different places.

Key:
[1] = molecular target: T1, EGFR (Homo sapiens, UniProt P00533); experiment: KINOMEscan scanEDGE; type: binding; conditions: 20 uM
T1 construct: purchased Eurofins DiscoverX (KINOMEscan; SAFETYscan E/IC50 ELECT)

[2] = test system: GABAA; experiment: SAFETYscan Ion Channel; type: cell-based; conditions: 10 uM
Protocol: (§1) The specificity of EDG-5506 for fast skeletal myosin over other, unrelated proteins was confirmed using two off-target binding and activity screens. […] A second off-target panel (SAFETYscan E/IC50 ELECT, Eurofins DiscoverX) tested in vitro enzyme activity against 78 proteins, including GPCR, ion channel, kinases, nuclear hormone receptors, and transporters. In all assays, the IC50 of EDG-5506 was more than 10 μM (Supplemental Data File 1).

[3] = molecular target: T2, JAK2(JH1domain-catalytic) (Homo sapiens, UniProt O60674); experiment: KINOMEscan scanEDGE; type: binding; conditions: 20 uM
T2 construct: JAK2(JH1domain-catalytic); purchased Eurofins DiscoverX (KINOMEscan; SAFETYscan E/IC50 ELECT)

[4] = molecular target: T3, ABL1(T315I)-phosphorylated (Homo sapiens, UniProt P00519, T315I); experiment: KINOMEscan scanEDGE; type: binding; conditions: 20 uM
T3 construct: purchased Eurofins DiscoverX (KINOMEscan; SAFETYscan E/IC50 ELECT)

[5] = molecular target: T4, TIE2 (Homo sapiens, UniProt Q02763); experiment: KINOMEscan scanEDGE; type: binding; conditions: 20 uM
T4 construct: purchased Eurofins DiscoverX (KINOMEscan; SAFETYscan E/IC50 ELECT)

[6] = molecular target: T5, SERT (Homo sapiens, UniProt P31645); experiment: SAFETYscan Transporter; type: cell-based; design: dose or concentration left out as unconfirmed; conditions: read-out: Max Response (%) (Antagonist)
T5 construct: purchased Eurofins DiscoverX (KINOMEscan; SAFETYscan E/IC50 ELECT)
Protocol: as §1

[7] = molecular target: T6, NET (Homo sapiens, UniProt P23975); experiment: SAFETYscan Transporter; type: cell-based; design: dose or concentration left out as unconfirmed; conditions: read-out: Max Response (%) (Antagonist)
T6 construct: purchased Eurofins DiscoverX (KINOMEscan; SAFETYscan E/IC50 ELECT)
Protocol: as §1

[8] = molecular target: T7, DAT (Homo sapiens, UniProt Q01959); experiment: SAFETYscan Transporter; type: cell-based; design: dose or concentration left out as unconfirmed; conditions: read-out: Max Response (%) (Antagonist)
T7 construct: purchased Eurofins DiscoverX (KINOMEscan; SAFETYscan E/IC50 ELECT)
Protocol: as §1

[9] = molecular target: T8, PLK3 (Homo sapiens, UniProt Q9H4B4); experiment: KINOMEscan scanEDGE; type: binding; conditions: 20 uM
T8 construct: purchased Eurofins DiscoverX (KINOMEscan; SAFETYscan E/IC50 ELECT)

[10] = Muscle concentration in GRMD dogs; type: in vivo, dog; conditions: end of the dosing period
Protocol: We viewed data in mice as encouraging but were interested in testing EDG-5506 in dystrophic golden retriever (GRMD) dogs; their muscle composition and function more closely resemble that of humans ([40]). Older (7 months of age), disease-stable GRMD were dosed in 2-week periods with vehicle, then EDG-5506, followed by a vehicle washout. As fast fiber atrophy has been documented in DMD dogs ([16]), we confirmed sustained fast myosin from biopsies of age-matched WT/GRMD gastrocnemius muscle (Supplemental Figure 6A). EDG-5506 concentration was measured from a muscle biopsy at the end of the dosing period (4,951 ± 217 ng/g muscle). EDG-5506 administration was associated with a more than 50% decrease in CK, returning to pretreatment levels after compound washout (Figure 6A). Physical activity normally increases CK in GRMD ([41]), raising the question of whether EDG-5506 lowered CK via decreasing physical activity. We sought to test the effect of EDG-5506 on habitual activity in the same dogs using an activity monitor ([42]). EDG-5506 improved average daily activity by more than 30% (Figure 6B and Supplemental Figure 6B) with reversible increases in time active and decreases in time resting (Figure 6C). One GRMD used in the biomarker study was too severely progressed to participate in this study.

[11] = molecular target: 78 proteins, including GPCR, ion channel, kinases, nuclear hormone receptors, and transporters; experiment: SAFETYscan E/IC50 ELECT off-target panel (whole panel); conditions: read-out: IC50 in all SAFETYscan assays
Protocol: as §1

[12] = molecular target: T9, ALK (Homo sapiens, UniProt Q9UM73); experiment: KINOMEscan scanEDGE; type: binding; conditions: 20 uM
T9 construct: purchased Eurofins DiscoverX (KINOMEscan; SAFETYscan E/IC50 ELECT)

[13] = molecular target: T10, PAK1 (Homo sapiens, UniProt Q13153); experiment: KINOMEscan scanEDGE; type: binding; conditions: 20 uM
T10 construct: purchased Eurofins DiscoverX (KINOMEscan; SAFETYscan E/IC50 ELECT)

[14] = molecular target: T11, CDK3 (Homo sapiens, UniProt Q00526); experiment: KINOMEscan scanEDGE; type: binding; conditions: 20 uM
T11 construct: purchased Eurofins DiscoverX (KINOMEscan; SAFETYscan E/IC50 ELECT)

[15] = molecular target: T12, YANK3 (Homo sapiens, UniProt Q86UX6); experiment: KINOMEscan scanEDGE; type: binding; conditions: 20 uM
T12 construct: purchased Eurofins DiscoverX (KINOMEscan; SAFETYscan E/IC50 ELECT)

[16] = molecular target: T13, JNK3 (Homo sapiens, UniProt P53779); experiment: KINOMEscan scanEDGE; type: binding; conditions: 20 uM
T13 construct: purchased Eurofins DiscoverX (KINOMEscan; SAFETYscan E/IC50 ELECT)

[17] = molecular target: T14, PLK4 (Homo sapiens, UniProt O00444); experiment: KINOMEscan scanEDGE; type: binding; conditions: 20 uM
T14 construct: purchased Eurofins DiscoverX (KINOMEscan; SAFETYscan E/IC50 ELECT)

[18] = molecular target: T15, CHRM1 (Homo sapiens, UniProt P11229); experiment: SAFETYscan Calcium Flux; type: cell-based; design: dose or concentration left out as unconfirmed
T15 construct: purchased Eurofins DiscoverX (KINOMEscan; SAFETYscan E/IC50 ELECT)
Protocol: as §1

[19] = molecular target: T16, ADRA1A (Homo sapiens, UniProt P35348); experiment: SAFETYscan Calcium Flux; type: cell-based; design: dose or concentration left out as unconfirmed
T16 construct: purchased Eurofins DiscoverX (KINOMEscan; SAFETYscan E/IC50 ELECT)
Protocol: as §1

[20] = molecular target: T17, HTR2B (Homo sapiens, UniProt P41595); experiment: SAFETYscan Calcium Flux; type: cell-based; design: dose or concentration left out as unconfirmed
T17 construct: purchased Eurofins DiscoverX (KINOMEscan; SAFETYscan E/IC50 ELECT)
Protocol: as §1

[21] = molecular target: T18, ADORA2A (Homo sapiens, UniProt P29274); experiment: SAFETYscan Calcium Flux; type: cell-based; design: dose or concentration left out as unconfirmed
T18 construct: purchased Eurofins DiscoverX (KINOMEscan; SAFETYscan E/IC50 ELECT)
Protocol: as §1

[22] = molecular target: T19, EDNRA (Homo sapiens, UniProt P25101); experiment: SAFETYscan Calcium Flux; type: cell-based; design: dose or concentration left out as unconfirmed
T19 construct: purchased Eurofins DiscoverX (KINOMEscan; SAFETYscan E/IC50 ELECT)
Protocol: as §1

[23] = molecular target: T20, HRH1 (Homo sapiens, UniProt P35367); experiment: SAFETYscan Calcium Flux; type: cell-based; design: dose or concentration left out as unconfirmed
T20 construct: purchased Eurofins DiscoverX (KINOMEscan; SAFETYscan E/IC50 ELECT)
Protocol: as §1

[24] = molecular target: T21, CCKAR (Homo sapiens, UniProt P32238); experiment: SAFETYscan Calcium Flux; type: cell-based; design: dose or concentration left out as unconfirmed
T21 construct: purchased Eurofins DiscoverX (KINOMEscan; SAFETYscan E/IC50 ELECT)
Protocol: as §1

[25] = molecular target: T22, HTR2A (Homo sapiens, UniProt P28223); experiment: SAFETYscan Calcium Flux; type: cell-based; design: dose or concentration left out as unconfirmed
T22 construct: purchased Eurofins DiscoverX (KINOMEscan; SAFETYscan E/IC50 ELECT)
Protocol: as §1

[26] = molecular target: T23, AVPR1A (Homo sapiens, UniProt P37288); experiment: SAFETYscan Calcium Flux; type: cell-based; design: dose or concentration left out as unconfirmed
T23 construct: purchased Eurofins DiscoverX (KINOMEscan; SAFETYscan E/IC50 ELECT)
Protocol: as §1

[27] = molecular target: T24, CHRM3 (Homo sapiens, UniProt P20309); experiment: SAFETYscan Calcium Flux; type: cell-based; design: dose or concentration left out as unconfirmed
T24 construct: purchased Eurofins DiscoverX (KINOMEscan; SAFETYscan E/IC50 ELECT)
Protocol: as §1

[28] = read-out: Max Response (%) (Agonist)
[29] = read-out: Max Response (%) (Antagonist)

T24 sequence (P20309 whole entry): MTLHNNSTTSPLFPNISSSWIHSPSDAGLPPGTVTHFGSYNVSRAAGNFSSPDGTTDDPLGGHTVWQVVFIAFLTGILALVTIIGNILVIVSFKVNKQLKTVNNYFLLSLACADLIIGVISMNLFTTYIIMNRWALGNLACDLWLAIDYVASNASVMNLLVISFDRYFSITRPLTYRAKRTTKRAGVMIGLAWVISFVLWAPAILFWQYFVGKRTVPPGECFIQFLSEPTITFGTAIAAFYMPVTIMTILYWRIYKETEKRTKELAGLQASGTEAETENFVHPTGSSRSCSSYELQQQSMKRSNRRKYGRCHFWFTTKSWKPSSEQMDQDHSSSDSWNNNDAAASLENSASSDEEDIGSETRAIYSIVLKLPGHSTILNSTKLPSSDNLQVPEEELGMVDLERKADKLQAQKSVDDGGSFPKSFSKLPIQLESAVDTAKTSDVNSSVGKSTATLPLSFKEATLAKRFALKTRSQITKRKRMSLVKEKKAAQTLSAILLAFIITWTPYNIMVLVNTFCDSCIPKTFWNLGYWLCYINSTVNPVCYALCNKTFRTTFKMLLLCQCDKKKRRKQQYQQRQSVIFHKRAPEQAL
T19 sequence (P25101 21-427): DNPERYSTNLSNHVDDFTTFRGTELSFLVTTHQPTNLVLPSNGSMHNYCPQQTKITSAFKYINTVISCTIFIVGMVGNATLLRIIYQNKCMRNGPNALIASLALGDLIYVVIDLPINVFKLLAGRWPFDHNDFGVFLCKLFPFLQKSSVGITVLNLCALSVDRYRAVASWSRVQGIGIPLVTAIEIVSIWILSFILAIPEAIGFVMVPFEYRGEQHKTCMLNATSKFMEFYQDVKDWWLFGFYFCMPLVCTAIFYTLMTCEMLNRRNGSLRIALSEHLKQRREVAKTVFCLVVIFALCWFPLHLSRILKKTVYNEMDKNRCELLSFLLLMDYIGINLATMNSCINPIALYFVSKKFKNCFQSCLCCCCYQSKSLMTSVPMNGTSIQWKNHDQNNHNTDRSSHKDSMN
T20 sequence (P35367 whole entry): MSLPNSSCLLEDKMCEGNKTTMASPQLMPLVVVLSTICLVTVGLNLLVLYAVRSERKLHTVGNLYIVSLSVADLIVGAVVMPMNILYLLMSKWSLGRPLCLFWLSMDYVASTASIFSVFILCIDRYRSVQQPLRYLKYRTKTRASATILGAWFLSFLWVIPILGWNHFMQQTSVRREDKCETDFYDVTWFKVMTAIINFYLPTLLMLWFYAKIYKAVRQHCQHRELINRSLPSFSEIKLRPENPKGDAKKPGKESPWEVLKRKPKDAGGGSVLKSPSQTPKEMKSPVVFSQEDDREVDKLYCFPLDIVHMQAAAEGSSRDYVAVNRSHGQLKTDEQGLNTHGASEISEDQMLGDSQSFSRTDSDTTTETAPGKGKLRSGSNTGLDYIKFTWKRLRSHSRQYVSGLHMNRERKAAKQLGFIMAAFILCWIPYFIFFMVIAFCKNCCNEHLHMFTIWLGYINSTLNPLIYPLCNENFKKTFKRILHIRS
T16 sequence (P35348 whole entry): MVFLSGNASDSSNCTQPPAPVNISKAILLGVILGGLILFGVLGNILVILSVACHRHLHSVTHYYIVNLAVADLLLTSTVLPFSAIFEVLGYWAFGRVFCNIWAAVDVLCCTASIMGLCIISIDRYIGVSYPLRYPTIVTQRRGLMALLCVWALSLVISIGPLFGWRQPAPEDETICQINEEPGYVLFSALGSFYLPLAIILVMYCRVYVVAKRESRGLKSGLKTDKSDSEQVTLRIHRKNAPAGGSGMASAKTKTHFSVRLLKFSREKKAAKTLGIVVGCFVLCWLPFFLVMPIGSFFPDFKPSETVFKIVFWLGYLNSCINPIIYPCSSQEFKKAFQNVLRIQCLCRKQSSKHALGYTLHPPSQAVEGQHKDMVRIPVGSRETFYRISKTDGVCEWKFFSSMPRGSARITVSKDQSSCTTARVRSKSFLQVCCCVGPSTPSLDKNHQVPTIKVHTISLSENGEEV
T21 sequence (P32238 whole entry): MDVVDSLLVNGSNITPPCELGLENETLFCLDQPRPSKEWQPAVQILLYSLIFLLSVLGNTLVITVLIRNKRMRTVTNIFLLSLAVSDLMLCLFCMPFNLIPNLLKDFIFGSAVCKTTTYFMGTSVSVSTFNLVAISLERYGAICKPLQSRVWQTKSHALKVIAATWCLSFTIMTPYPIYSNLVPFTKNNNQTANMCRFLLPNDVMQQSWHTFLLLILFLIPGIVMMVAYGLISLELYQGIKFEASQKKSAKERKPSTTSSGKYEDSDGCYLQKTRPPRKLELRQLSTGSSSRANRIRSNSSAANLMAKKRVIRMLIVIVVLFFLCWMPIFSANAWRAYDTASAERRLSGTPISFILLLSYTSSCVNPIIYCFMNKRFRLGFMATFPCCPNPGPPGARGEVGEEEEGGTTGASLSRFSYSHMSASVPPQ
T17 sequence (P41595 whole entry): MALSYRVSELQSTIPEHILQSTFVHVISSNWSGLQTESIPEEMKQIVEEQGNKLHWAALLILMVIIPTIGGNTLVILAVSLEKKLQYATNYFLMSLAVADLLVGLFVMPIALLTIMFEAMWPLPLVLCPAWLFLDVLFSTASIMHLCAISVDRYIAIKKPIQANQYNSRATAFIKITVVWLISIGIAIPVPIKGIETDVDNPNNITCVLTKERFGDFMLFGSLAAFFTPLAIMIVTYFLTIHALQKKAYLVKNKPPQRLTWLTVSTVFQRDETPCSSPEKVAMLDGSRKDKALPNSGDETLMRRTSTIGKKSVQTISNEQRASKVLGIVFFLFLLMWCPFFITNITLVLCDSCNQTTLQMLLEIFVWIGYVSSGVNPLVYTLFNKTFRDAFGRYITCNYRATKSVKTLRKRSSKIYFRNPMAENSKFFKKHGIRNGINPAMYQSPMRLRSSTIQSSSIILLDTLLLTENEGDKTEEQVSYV
T23 sequence (P37288 whole entry): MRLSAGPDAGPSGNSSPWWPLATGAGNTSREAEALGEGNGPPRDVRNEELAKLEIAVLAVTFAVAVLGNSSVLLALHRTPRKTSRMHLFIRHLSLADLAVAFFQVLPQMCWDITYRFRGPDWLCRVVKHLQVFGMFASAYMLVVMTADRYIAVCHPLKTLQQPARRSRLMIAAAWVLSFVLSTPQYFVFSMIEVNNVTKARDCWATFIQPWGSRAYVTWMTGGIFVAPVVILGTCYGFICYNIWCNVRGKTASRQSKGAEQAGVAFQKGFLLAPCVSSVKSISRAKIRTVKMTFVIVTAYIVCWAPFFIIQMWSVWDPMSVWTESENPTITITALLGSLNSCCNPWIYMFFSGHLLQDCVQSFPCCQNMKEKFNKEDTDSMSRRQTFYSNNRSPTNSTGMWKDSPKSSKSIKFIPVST
T15 sequence (P11229 whole entry): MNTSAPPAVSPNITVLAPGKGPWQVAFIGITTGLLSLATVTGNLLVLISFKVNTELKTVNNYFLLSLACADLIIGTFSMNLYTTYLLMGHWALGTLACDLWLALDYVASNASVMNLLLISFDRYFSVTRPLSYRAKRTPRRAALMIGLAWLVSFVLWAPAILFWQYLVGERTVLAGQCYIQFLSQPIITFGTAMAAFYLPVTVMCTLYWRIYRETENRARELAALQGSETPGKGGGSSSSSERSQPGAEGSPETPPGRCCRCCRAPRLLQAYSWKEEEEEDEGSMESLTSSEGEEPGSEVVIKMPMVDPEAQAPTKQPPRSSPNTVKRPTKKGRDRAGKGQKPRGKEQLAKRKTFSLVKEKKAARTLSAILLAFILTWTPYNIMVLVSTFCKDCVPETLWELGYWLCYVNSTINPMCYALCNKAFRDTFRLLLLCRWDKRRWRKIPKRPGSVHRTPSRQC
T18 sequence (P29274 whole entry): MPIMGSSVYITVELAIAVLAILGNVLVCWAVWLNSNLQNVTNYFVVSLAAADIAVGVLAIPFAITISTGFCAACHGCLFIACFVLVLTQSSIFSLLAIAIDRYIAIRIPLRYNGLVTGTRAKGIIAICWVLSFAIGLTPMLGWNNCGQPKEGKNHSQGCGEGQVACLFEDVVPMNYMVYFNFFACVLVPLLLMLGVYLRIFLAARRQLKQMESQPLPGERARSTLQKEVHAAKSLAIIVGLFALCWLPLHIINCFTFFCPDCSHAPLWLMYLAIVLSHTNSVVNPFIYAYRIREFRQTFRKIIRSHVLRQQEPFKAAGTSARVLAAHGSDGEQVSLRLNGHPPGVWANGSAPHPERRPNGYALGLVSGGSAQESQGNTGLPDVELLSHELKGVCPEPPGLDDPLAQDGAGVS
T22 sequence (P28223 whole entry): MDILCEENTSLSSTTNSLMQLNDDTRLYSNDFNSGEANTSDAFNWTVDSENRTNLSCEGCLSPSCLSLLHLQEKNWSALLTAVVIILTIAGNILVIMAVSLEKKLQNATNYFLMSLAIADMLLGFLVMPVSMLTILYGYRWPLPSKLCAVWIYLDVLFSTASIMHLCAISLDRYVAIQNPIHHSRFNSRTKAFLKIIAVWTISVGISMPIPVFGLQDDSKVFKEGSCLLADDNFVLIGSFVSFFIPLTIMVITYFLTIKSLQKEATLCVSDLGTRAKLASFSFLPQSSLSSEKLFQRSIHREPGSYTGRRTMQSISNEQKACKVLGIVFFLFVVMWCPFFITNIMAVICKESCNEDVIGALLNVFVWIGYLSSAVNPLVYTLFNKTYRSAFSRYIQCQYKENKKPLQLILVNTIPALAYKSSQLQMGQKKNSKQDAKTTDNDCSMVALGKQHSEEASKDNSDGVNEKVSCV
T2 sequence (O60674 840-1132 limits assumed): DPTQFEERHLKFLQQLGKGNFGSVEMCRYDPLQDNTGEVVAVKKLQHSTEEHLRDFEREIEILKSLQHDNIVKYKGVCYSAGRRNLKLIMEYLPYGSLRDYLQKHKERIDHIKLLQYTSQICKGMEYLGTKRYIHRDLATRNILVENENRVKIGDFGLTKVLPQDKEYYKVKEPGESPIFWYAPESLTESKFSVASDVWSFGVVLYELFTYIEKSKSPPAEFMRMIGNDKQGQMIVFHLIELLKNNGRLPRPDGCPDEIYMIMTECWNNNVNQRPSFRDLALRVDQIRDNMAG

SMILES: O=c1ccc(-c2cnc(OCC(F)(F)F)nc2)nn1Cc1cncc(F)c1 [EDG-5506]
- binding, % of control [1]: 100 % of control
- Max Response (%) (Agonist) [2]: 4.91%
- Max Response (%) (Antagonist) [2]: 7.72%
- binding, % of control [3]: 83 % of control
- binding, % of control [4]: 94 % of control
- binding, % of control [5]: 95 % of control
- Emax [6]: 6.08%
- Emax [7]: 4.79%
- Emax [8]: 0%
- binding, % of control [9]: 95 % of control
- EDG-5506 concentration in muscle biopsy [10]: 4,951 ± 217 ng/g muscle
- IC50 [11]: > 10 µM
- binding, % of control [12]: 95 % of control
- binding, % of control [13]: 100 % of control
- binding, % of control [14]: 100 % of control
- binding, % of control [15]: 88 % of control
- binding, % of control [16]: 81 % of control
- binding, % of control [17]: 90 % of control
- Emax [18, 28]: 0.16%
- Emax [18, 29]: 0%
- Emax [19, 28]: 2.19%
- Emax [19, 29]: 18.5%
- Emax [20, 28]: 5.88%
- Emax [20, 29]: 2.49%
- Emax [21, 28]: 0%
- Emax [21, 29]: 0%
- Emax [22, 28]: 0%
- Emax [22, 29]: 0%
- Emax [23, 28]: 0%
- Emax [23, 29]: 25.2%
- Emax [24, 28]: 1.03%
- Emax [24, 29]: 5.54%
- Emax [25, 28]: 3.31%
- Emax [25, 29]: 0.4%
- Emax [26, 28]: 0%
- Emax [26, 29]: 0%
- Emax [27, 28]: 2.48%
- Emax [27, 29]: 2.14%
